Source: patent publication US4595678A, “N-substituted pseudo-aminosugars and pharmaceutical compositions containing same” (Takeda Chemical Industries, Ltd., priority 1982, dated 1986)
Read-outs that look alike come from different tables or passages of the source.

Legend:
[1] = target: maltase (porcine intestinal mucosa); test: Glucosidase inhibitory activity, maltase (maltose as substrate); type: biochemical; conditions: read-out: IC50 (maltase), 50% inhibition concentration, pH 6.8, 37° C., 10 minutes
Method: (§1) The method of assaying the glucosidase inhibitory activity.
(§2) The inhibitory activities against maltase or saccharase prepared from porcine intestinal mucosa [prepared in accordance with the procedure as described by B. Borgstrom and A. Dahlqvist in Acta Chem. Scand., 12, 1997-2006, (1958)], when maltose or sucrose is used as a substrate, were determined by adding, to 0.25 ml of a solution of an enzyme prepared by diluting suitably with 0.02M phosphate buffer (pH 6.8), 0.5 ml of an inhibitory substance to be tested (compound [I] or a pharmaceutically acceptable salt thereof) in the same buffer and 0.25 ml of 0.05M maltose or 0.05M sucrose as the substrate in the same buffer, allowing the mixture to react at 37° C. for 10 minutes, then adding 3 ml of Glucose B-Test Reagent (a glucose oxidase reagent for measurement of glucose, produced by Wako Pure Chemical Co., Japan), further warming the mixture at 37° C. for 20 minutes and measuring the absorbance of the colored reaction solution at 505 nm.

[2] = target: T1, saccharase (porcine intestinal mucosa) (Sus scrofa, UniProt P56729); test: Glucosidase inhibitory activity, saccharase (sucrose as substrate); type: biochemical
T1 construct: prepared from porcine intestinal mucosa; from tissue; host or cells: porcine intestinal mucosa
Method: as §1, §2

[3] = read-out: IC50 (saccharase), 50% inhibition concentration, pH 6.8, 37° C., 10 minutes

T1 sequence (P56729 with tags, fused parts or gaps limits assumed): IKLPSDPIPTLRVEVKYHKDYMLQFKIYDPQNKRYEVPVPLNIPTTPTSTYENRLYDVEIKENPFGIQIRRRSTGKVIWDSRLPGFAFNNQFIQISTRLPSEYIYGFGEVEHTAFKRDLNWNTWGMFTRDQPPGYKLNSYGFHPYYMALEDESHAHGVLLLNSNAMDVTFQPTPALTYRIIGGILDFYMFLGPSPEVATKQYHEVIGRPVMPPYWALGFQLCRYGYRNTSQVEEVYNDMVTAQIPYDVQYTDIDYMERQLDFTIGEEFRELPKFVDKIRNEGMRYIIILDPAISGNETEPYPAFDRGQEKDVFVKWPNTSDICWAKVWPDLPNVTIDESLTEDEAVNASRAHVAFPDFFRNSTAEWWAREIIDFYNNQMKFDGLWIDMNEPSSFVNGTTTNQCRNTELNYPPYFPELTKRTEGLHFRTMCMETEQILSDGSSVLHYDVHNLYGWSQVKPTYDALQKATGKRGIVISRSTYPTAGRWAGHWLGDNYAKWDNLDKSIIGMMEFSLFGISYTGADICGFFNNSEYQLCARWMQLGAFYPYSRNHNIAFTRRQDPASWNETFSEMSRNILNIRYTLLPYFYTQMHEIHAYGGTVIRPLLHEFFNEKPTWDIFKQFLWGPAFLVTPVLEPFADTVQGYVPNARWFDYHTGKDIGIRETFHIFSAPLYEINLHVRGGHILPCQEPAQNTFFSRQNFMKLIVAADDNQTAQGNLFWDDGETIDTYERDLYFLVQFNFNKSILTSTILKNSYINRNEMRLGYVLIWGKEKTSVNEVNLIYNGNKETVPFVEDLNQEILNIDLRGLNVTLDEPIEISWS
T1 sequence (P56729 with tags, fused parts or gaps partner limits assumed): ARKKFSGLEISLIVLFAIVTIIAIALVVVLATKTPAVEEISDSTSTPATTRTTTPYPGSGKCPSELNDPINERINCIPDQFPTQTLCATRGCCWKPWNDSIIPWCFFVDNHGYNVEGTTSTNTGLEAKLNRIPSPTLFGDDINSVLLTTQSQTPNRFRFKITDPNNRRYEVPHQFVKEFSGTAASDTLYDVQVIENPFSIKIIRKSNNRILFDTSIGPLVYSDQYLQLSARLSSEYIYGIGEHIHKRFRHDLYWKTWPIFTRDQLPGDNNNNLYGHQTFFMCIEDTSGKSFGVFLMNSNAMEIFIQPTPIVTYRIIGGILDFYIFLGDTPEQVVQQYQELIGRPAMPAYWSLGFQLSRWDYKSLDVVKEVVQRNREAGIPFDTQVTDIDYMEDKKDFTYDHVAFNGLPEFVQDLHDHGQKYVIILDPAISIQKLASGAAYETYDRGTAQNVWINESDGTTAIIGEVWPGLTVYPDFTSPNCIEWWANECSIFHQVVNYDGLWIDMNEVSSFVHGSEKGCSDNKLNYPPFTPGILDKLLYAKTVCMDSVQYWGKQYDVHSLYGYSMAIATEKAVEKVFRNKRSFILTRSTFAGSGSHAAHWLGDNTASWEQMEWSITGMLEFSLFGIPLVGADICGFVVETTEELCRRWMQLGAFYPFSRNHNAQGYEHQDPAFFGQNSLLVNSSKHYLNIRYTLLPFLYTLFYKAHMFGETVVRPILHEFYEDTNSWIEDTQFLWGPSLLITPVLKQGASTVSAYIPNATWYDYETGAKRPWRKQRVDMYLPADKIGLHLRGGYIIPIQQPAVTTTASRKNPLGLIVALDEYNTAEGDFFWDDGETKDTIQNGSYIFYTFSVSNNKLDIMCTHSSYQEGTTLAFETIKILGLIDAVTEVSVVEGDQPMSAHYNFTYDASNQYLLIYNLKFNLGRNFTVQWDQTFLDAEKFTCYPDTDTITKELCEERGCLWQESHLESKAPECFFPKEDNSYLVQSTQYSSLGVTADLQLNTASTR

Compound | IC50 [1] [nM] | IC50 [2, 3] [nM] | IC50 ([2]; pH 6.8, 37° C., 10 minutes) [nM]
C[C@H]1CC(O)[C@H](O)[C@@H](O)[C@@H]1N[C@H]1C[C@](O)(CO)[C@@H](O)[C@H](O)[C@H]1O (single isomer, unassigned) [Example 21, isomer (b)] |  | 36 | 
CO[C@H]1O[C@H](C)[C@@H](N[C@H]2C=C(CO)[C@@H](O)[C@H](O)[C@H]2O)[C@H](O)[C@H]1O [Reference Example 40,6-deoxyglucopyranoside isomer, Methyl 4-[(1S,6S)-(4,6/5)-4,5,6-trihydroxy-3-hydroxymethyl-2-cyclohexen-1-yl]amino-4,6-dideoxy-α-D-glucopyranoside] |  |  | 700
OCC1=C[C@H](NC2[C@@H](O)C(O)O[C@H](CO)[C@H]2O)[C@H](O)[C@@H](O)[C@@H]1O (some centres unmarked) [N-(2,3,5-trihydroxy-6-hydroxymethyltetrahydropyran-4-yl)valienamine] | 31000 | 450 | 
CO[C@H]1O[C@H](CO)[C@H](N[C@H]2C[C@](O)(CO)[C@@H](O)[C@H](O)[C@H]2O)[C@H](O)[C@H]1O [Example 4, Galactopyranoside isomer, Methyl 4-[(1S,2S)-(2,4,5(OH)/3,5-(CH2 OH))-2,3,4,5-tetrahydroxy-5-hydroxymethylcyclohexyl]amino-4-deoxy-α-D-galactopyranoside] | 320 |  | 620
CC1(C)O[C@H]2O[C@H]([C@H](O)CO)C(N[C@H]3C[C@](O)(CO)[C@@H](O)[C@H](O)[C@H]3O)[C@H]2O1 (some centres unmarked) [N-[2,3-O-isopropylidene-2,3-dihydroxy-5-(1,2-dihydroxyethyl)tetrahydrofuran-4-yl]valiolamine] |  | 37000 | 
CO[C@H]1O[C@H](CO)[C@@H](N[C@H]2C[C@](O)(CO)[C@@H](O)[C@H](O)[C@H]2O)[C@H](O)[C@H]1O [Example 4, Glucopyranoside isomer, Methyl 4-[(1S,2S)-(2,4,5(OH)/3,5(CH2 OH))-2,3,4,5-tetrahydroxy-5-hydroxymethylcyclohexyl]amino-4-deoxy-α-D-glucopyranoside] | 72 |  | 80
CO[C@H]1O[C@H](C)[C@H](N[C@H]2C[C@H](CO)[C@@H](O)[C@H](O)[C@H]2O)[C@H](O)[C@H]1O [Example 1,6-deoxygalactopyranoside isomer, Methyl 4-[(1S,2S)-(2,4/3,5)-2,3,4-trihydroxy-5-hydroxymethylcyclohexyl]amino-4,6-dideoxy-α-D-galactopyranoside] |  |  | 5600
C[C@H]1O[C@H](O[C@H]2[C@H](O)[C@@H](O)C(O)O[C@@H]2CO)[C@H](O)[C@@H](O)[C@@H]1N[C@H]1C[C@](O)(CO)[C@@H](O)[C@H](O)[C@H]1O (stereo partly drawn) [Example 28, 4-O-α-[4-[(1S)-(1,2,4,5(OH)/3,5(CH2 OH))-(2,3,4,5-Tetrahydroxy-5-(hydroxymethyl)cyclohexyl)amino]-4,6-dideoxy-D-glucopyranosyl]-D-glucopyranose] | 120 |  | 80
CC1(O)CC(N)C(O)C(O)C1O (centres unmarked) [compound 26, 7-Deoxyvaliolamine] |  |  | 24000
CCOC(=O)NC1CC(NC(=O)OCC)C(N[C@H]2C[C@](O)(CO)[C@@H](O)[C@H](O)[C@H]2O)C(O)C1O (some centres unmarked) [Example 11, N-(2,4-Diethoxycarbonylamino-5,6-dihydroxycyclohexyl)valiolamine] | 9000 | 4900 | 
OC[C@H]1OC(O)[C@H](O)C(N[C@H]2C[C@](O)(CO)[C@@H](O)[C@H](O)[C@H]2O)[C@@H]1O (some centres unmarked) [N-(2,3,5-trihydroxy-6-hydroxymethyltetrahydropyran-4-yl)valiolamine] | 110 | 90 | 
C[C@H]1O[C@H](O[C@H]2[C@H](O)[C@@H](O)[C@@H]3OC[C@H]2O3)[C@H](O)[C@@H](O)[C@@H]1N[C@H]1C[C@](O)(CO)[C@@H](O)[C@H](O)[C@H]1O [Example 25, isomer (b)] | 130 |  | 25
C[C@H]1CC(O)[C@H](O)[C@@H](O)[C@@H]1N[C@H]1C[C@](O)(CO)[C@@H](O)[C@H](O)[C@H]1O (single isomer, unassigned) [Example 21, isomer (a)] |  | 35 | 
O=C(N[C@H]1C[C@H](CO)C(N[C@H]2C[C@H](CO)[C@@H](O)[C@H](O)[C@H]2O)[C@H](O)[C@H]1O)OCc1ccccc1 (stereo partly drawn) [Example 5, [(1S,2S)-(2,4/3,5)-2,3,4-Trihydroxy-5-hydroxymethylcyclohexyl][(2S)-(2,6/3,4)-4-benzyloxycarbonylamino-2,3-dihydroxy-6-hydroxy-methylcyclohexyl]amine] |  |  | 700

The next lines start with the values.

IC50 [1] [nM] | IC50 [2, 3] [nM] | IC50 ([2]; pH 6.8, 37° C., 10 minutes) [nM] | Compound
1000 | 88 |  | NC1CC(N)C(N[C@H]2C[C@](O)(CO)[C@@H](O)[C@H](O)[C@H]2O)C(O)C1O (single isomer, unassigned) [Example 12, Isomer D, N-(2,4-Diamino-5,6-dihydroxycyclohexyl)valiolamine]
2200 |  | 270 | OC[C@H]1C[C@H](N[C@@H]2C[C@H](CO)[C@@H](O)[C@H](O)[C@H]2O)[C@H](O)[C@@H](O)[C@@H]1O [Example 17, (1R,2S) isomer, N-[(1R,2S)-(2,4/3,5)-2,3,4-trihydroxy-5-hydroxymethylcyclohexyl]validamine]
 |  | 53 | C[C@H]1C[C@H](N)[C@H](O)[C@@H](O)[C@H]1N[C@H]1C[C@](O)(CO)[C@@H](O)[C@H](O)[C@H]1O [Example 20, isomer (b), N-[(1S,2S)-(2,6/3,4)-4-amino-2,3-dihydroxy-6-methylcyclohexyl]valiolamine]
 |  | 1000 | CO[C@H]1O[C@H](CO)[C@H](N[C@H]2C[C@H](CO)[C@@H](O)[C@H](O)[C@H]2O)[C@H](O)[C@H]1O [Example 3, Galactopyranoside isomer, Methyl 4-[(1S,2S)-(2,4/3,5)-2,3,4-trihydroxy-5-hydroxymethylcyclohexyl]amino-4-deoxy-α-D-galactopyranoside]
 |  | 5600 | OC[C@H]1C[C@H](N[C@H]2C[C@](O)(CO)[C@@H](O)[C@H](O)[C@H]2O)[C@H](O)[C@@H](O)[C@@H]1O [Example 18, (1S,2S) isomer, N-[(1S,2S)-(2,4/3,5)-2,3,4-trihydroxy-5-hydroxymethylcyclohexyl]valiolamine]
4400 |  | 580 | CO[C@H]1O[C@H](CO)[C@@H](N[C@H]2C[C@H](CO)[C@@H](O)[C@H](O)[C@H]2O)[C@H](O)[C@H]1O [Example 3, Glucopyranoside isomer, Methyl 4-[(1S,2S)-(2,4/3,5)-2,3,4-trihydroxy-5-hydroxymethylcyclohexyl]amino-4-deoxy-α-D-glucopyranoside]
 | 78000 |  | N[C@H]1C[C@H](CO)C(N[C@H]2C[C@H](CO)[C@@H](O)[C@H](O)[C@H]2O)[C@H](O)[C@H]1O (single isomer, unassigned) [Example 6, later eluted isomer]
1800 |  | 740 | CO[C@H]1O[C@H](C)[C@@H](N[C@H]2C[C@H](CO)[C@@H](O)[C@H](O)[C@H]2O)[C@H](O)[C@H]1O [Example 1,6-deoxyglucopyranoside isomer, Methyl 4-[(1S,2S)-(2,4/3,5)-2,3,4-trihydroxy-5-hydroxymethylcyclohexyl]amino-4,6-dideoxy-α-D-glucopyranoside]
44 |  | 48 | OC[C@H]1C[C@@H](N[C@H]2C[C@](O)(CO)[C@@H](O)[C@H](O)[C@H]2O)[C@H](O)[C@@H](O)[C@@H]1O [Example 18, (1R,2S) isomer, N-[(1R,2S)-(2,4/3,5)-2,3,4-trihydroxy-5-hydroxymethylcyclohexyl]valiolamine]
2900 | 1600 |  | N[C@H]1C[C@H](CO)C(N[C@H]2C[C@H](CO)[C@@H](O)[C@H](O)[C@H]2O)[C@H](O)[C@H]1O (single isomer, unassigned) [Example 6, first eluted isomer]
2800 | 230 |  | N[C@H]1C[C@H](CO)C(N[C@H]2C[C@](O)(CO)[C@@H](O)[C@H](O)[C@H]2O)[C@H](O)[C@H]1O (single isomer, unassigned) [Example 8,4-amino derivative from the later eluted component of Example 7]
 | 880 |  | NC1CC(N)C(N[C@H]2C[C@H](CO)[C@@H](O)[C@H](O)[C@H]2O)C(O)C1O (some centres unmarked) [Example 14, N-(2,4-Diamino-5,6-dihydroxycyclohexyl)validamine]
1900 | 170 |  | OC[C@H]1C[C@H](NC2[C@@H](O)C(O)O[C@H](CO)[C@H]2O)[C@H](O)[C@@H](O)[C@@H]1O (some centres unmarked) [N-(2,3,5-trihydroxy-6-hydroxymethyltetrahydropyran-4-yl)validamine]
3300 | 250 |  | N[C@H]1C[C@H](CO)C(N[C@H]2C[C@](O)(CO)[C@@H](O)[C@H](O)[C@H]2O)[C@H](O)[C@H]1O (single isomer, unassigned) [Example 8,4-amino derivative from the first eluted component of Example 7]
